{"source": "patent US11214806B2", "about": "“Marker, method and kit for observing effect of compound or drug on cells in real time, and use thereof” (priority 2016, dated 2022)", "key": {"[1]": {"test_system": "VirE2 trafficking in N. benthamiana (Nb308A) leaf epidermal cells", "assay": "Real-time VirE2-GFPcomp trafficking in agroinfiltrated tobacco leaf epidermal cells (split-GFP, confocal microscopy)", "assay_type": "cell-based", "conditions": "for effect on real-time movement process of protein VirE2-GFP / toxicity as judged from VirE2-GFP movement: drug infiltrated into leaf six hours before observation, FIG. 11; for effect on VirE2 trafficking: infiltrated 6 h before observation, control 0.5% DMSO, FIG. 1b-d", "description": "To visualize Agrobacterium-delivered VirE2, agroinfiltration was performed as described previously. Briefly, the bacteria were grown overnight; the cultures were diluted 50 times in MG/L and grown for 6 h. The bacteria were collected and re-suspended in infiltration buffer (10 mM MgCl2, 10 mM MES, pH5.5) to OD600=1.0. The bacterial suspension was infiltrated using a syringe to the underside of fully expended N. benthamiana leaves. The infiltrated plant was placed at 22° C. in a photoperiod of 16 h light/8 h dark. In order to observe a real-time effect of a compound or a drug on cells in real time, the inventor injected and infiltrated the compound or the drug into a leaf injected and infiltrated with A. tumefaciens EHA105virE2::GFP11 cell at an appropriate concentration, and observed with a UPLSAPO×60 N.A. 1.20 water immersion lens under a confocal microscope after six hours.\nA PerkinElmer UltraView Vox Spinning Disk system with EM-CCD cameras was used for confocal microscopy. To observe leaf epidermis, agroinfiltrated leaf tissues were detached from N. benthamiana plants and put in 2% low-melting agarose gel on a glass slide with a coverslip. All images were taken in multiple focal planes (Z-stacks), and were processed to show the extended focus image or 3D opacity view by Volocity® 3D Image Analysis Software 6.2.1.\nFIG. 1 illustrated Agrobacterium-delivered VirE2 trafficking on a cellular structure and entering the nucleus. A. tumefaciens EHA105virE2::GFP11 cells were infiltrated into transgenic N. benthamiana (Nb308A) leaves expressing both GFP1-10 and DsRed. […] Red, free DsRed; Green, VirE2-GFPcomp. (a) Time-lapse images of VirE2 aggregates trafficking along a linear cellular structure and entering the nucleus. Relative time is shown at the top right. Scale bar represents 20 μm. (b) Effects of chemical treatments on VirE2 trafficking. Chemicals were infiltrated into leaf samples 6 h before observation. Control, 0.5% DMSO. Colc, colchicine […] CytoD, cytochalasin D 20 μM. BFA, brefeldin A 100 μg/mL. Scale bar represents 20 μm. (c) Mean velocities of VirE2 aggregate movement after chemical treatments. Data analyzed with ANOVA and Tukey test, p<0.05. (d) Movement tracking of 20 individual VirE2 aggregates plotted to a common origin for each treatment.\nFIG. 4 illustrated effects of ML-7 and myosin-tail overexpression on VirE2 trafficking. (a) Effect of ML-7, a myosin light chain kinase inhibitor, on VirE2 trafficking. A. tumefaciens EHA105virE2::GFP11 cells were infiltrated into transgenic N. benthamiana (Nb308A) leaves expressing both GFP1-10 and DsRed. The leaves were infiltrated with 100 μM ML-7 or 1% DMSO as control 4 h before imaging. […] Red, free DsRed; Green, VirE2-GFPcomp. The movement tracking of 20 individual VirE2 aggregates plotted to a common origin is shown below the figure. Scale bar represents 20 μm. (b) Mean velocity of the VirE2 aggregates after ML-7 treatment. (c) Effects of myosin-tail overexpression on VirE2 trafficking. A. tumefaciens EHA105virE2::GFP11 cells harboring a binary plasmid which encodes a tail fragment of respective myosins downstream of 35S promoter were infiltrated into transgenic N. benthamiana (Nb308A) leaves expressing both GFP1-10 and DsRed. […] Red, free DsRed; Green, VirE2-GFPcomp. The movement tracking of 20 individual VirE2 aggregates plotted to a common origin is shown below the figure. Scale bar represents 20 μm. (d) Mean velocity of VirE2 aggregate movement under overexpression of myosin tails. EV, empty vector control. (e) Western analysis of crude extracts from leaf samples agroinfiltrated with myosin-tail constructs. EV, empty vector control. Myosin tails were HA tagged. GFP1-10 was detected to assess the amount of sample loaded, as shown in the lower panel. […]\nFIG. 11 illustrated an effect of a drug on VirE2 movement. A. tumefaciens EHA105virE2::GFP11 cell was injected and infiltrated into a transgenic tobacco line Nb308A constantly expressing a GFP1-10 and a DsRed. […]"}, "[2]": {"test_system": "root segments", "assay": "Effect of ML-7 on root segment viability", "assay_type": "cell-based, A. thaliana", "conditions": "10 μM ML-7 for 2 days, in the presence of hormones (auxin and cytokinin); FIG. 9c", "description": "(§1) The inventor wants to determine if the VirE2 movement observed during our studies is directly relevant to Agrobacterium-mediated transformation. The present invention tested the effect of a selective myosin light chain kinase inhibitor ML-7 on Arabidopsis root transformation. Root segments were inoculated with a tumor inducing strain A348 in the presence of 10 μM ML-7. […] The present invention tested the toxicity of ML-7 on either the root or Agrobacterium growth at 10 μM ML-7. The root segments were exposed to 10 μM of ML-7 for 2 days, which was the time span for the bacterium-Arabidopsis co-cultivation.\n(§2) FIG. 9 illustrated effects of ML-7 treatment on root tumorigenesis assay. Root segments from 10-day old wild type A. thaliana seedlings were infected with a tumor inducing Agrobacterium stain A348. Tumors were photographed three weeks later. (a) Tumors formed with or without ML-7 treatment. ML-7 was added (10 μM) into the col-cultivation mixture and then washed off when the root segments were transferred onto new plates for tumor formation. (b) Tumorigenesis efficiency as determined by percentage of root segments with tumors. (c) Effect of ML-7 on root segment viability. (d) Effect of ML-7 on Agrobacterium viability"}, "[3]": {"test_system": "Agrobacterium", "assay": "Effect of ML-7 on Agrobacterium viability", "assay_type": "cell-based, A. tumefaciens", "conditions": "10 μM ML-7", "description": "as §1, §2"}, "[4]": {"test_system": "Arabidopsis root transformation", "assay": "Root tumorigenesis assay (Arabidopsis root transformation with tumor inducing strain A348)", "assay_type": "cell-based, A. thaliana", "conditions": "10 μM ML-7 in co-cultivation mixture, FIG. 9", "description": "Arabidopsis thaliana seeds were surface-sterilized with 0.5% NaClO solution and placed onto solidified ½×MS medium supplemented with 1% sucrose and 0.5 g L^−1 MES, pH 5.8. The plates were then incubated under a 16 hour photoperiod at 25° C. for 10 to 12 days. Roots from individual seedlings were cut into 3-5 mm segments and re-suspended in 1 ml fresh ½×MS medium containing A. tumefaciens cells at a concentration of 5×10^8 cell/ml unless specified otherwise. The mixtures were spread onto a solidified ½×MS plate and subsequently incubated at 25° C. for 2 days. The root segments were aligned onto ½×MS medium plates containing […] cefotaxime and kept at 25° C. for 4 weeks before photographing.\nas §2"}, "[5]": {"test_system": "ER", "assay": "Effects of chemicals on cellular structures: ER marker ER-mCherry", "assay_type": "cell-based, N. benthamiana", "conditions": "100 μg/mL BFA at 6 h before imaging; tobacco leaves", "description": "(§3) FIG. 5 illustrated effects of chemicals on respective cellular structures. Wild type N. benthamiana leaves were agroinfiltrated with binary plasmids encoding different fluorescent markers. The epidermal cells were examined at 2 d post agroinfiltration under confocal microscope with Olympus UPLSAPO 60×N.A. 1.20 water immersion objective. Upper panels a-c: leaf samples expressing subcellular markers. Lower panels d-f: leaf samples expressing subcellular markers were treated with chemicals. (a) RFP-MBD. MBD, Microtubule Binding Domain. (b) ER-mCherry. (c) tdTomato-ABD2. ABD, Actin Binding Domain. (d) RFP-MBD. Leaf samples were treated with 500 μM colchicine at 6 h before imaging. (e) ER-mCherry. Leaf samples were treated with 100 μg/mL BFA at 6 h before imaging. (f) tdTomato-ABD. Leaf samples were treated with 20 μM cytochalasin D at 6 h before imaging. Scale bar represents 20 μm."}, "[6]": {"test_system": "microtubule", "assay": "Effects of chemicals on cellular structures: microtubule marker RFP-MBD", "assay_type": "cell-based, N. benthamiana", "conditions": "500 μM colchicine at 6 h before imaging; tobacco leaves", "description": "as §3"}, "[7]": {"test_system": "actin structures", "assay": "Effects of chemicals on cellular structures: actin marker tdTomato-ABD2", "assay_type": "cell-based, N. benthamiana", "conditions": "20 μM cytochalasin D at 6 h before imaging; tobacco leaves", "description": "as §3"}, "[8]": {"conditions": "colchicine 500 μM, cytochalasin D 20 μM, brefeldin A 100 μg/mL"}}, "note": "“Also recorded” adds a separate entry of the source.", "data": [{"smiles": "Clc1ccc(COC(Cn2ccnc2)c2ccc(Cl)cc2Cl)cc1", "note": "(centres unmarked) [Econazole]", "values": [{"measurement": "effect on real-time movement process of protein VirE2-GFP", "setting": "[1]", "value": "significantly affects"}, {"measurement": "toxicity as judged from VirE2-GFP movement", "setting": "[1]", "value": "highly toxic"}]}, {"smiles": "CC(=O)N1CCN(c2ccc(OCC3COC(Cn4ccnc4)(c4ccc(Cl)cc4Cl)O3)cc2)CC1", "note": "(centres unmarked) [Ketoconazole]", "values": [{"measurement": "effect on real-time movement process of protein VirE2-GFP", "setting": "[1]", "value": "does not affect"}, {"measurement": "toxicity as judged from VirE2-GFP movement", "setting": "[1]", "value": "less toxic"}]}, {"smiles": "O=S(=O)(c1cccc2c(I)cccc12)N1CCCNCC1", "note": "[ML-7]", "values": [{"measurement": "growth of root segments", "setting": "[2]", "value": "did not affect"}, {"measurement": "Agrobacterium growth", "setting": "[3]", "value": "did not inhibit"}, {"measurement": "effect on VirE2 movement", "setting": "[1]; 100 μM ML-7 infiltrated 4 h before imaging, control 1% DMSO, FIG. 4", "value": "obviously stops"}, {"measurement": "decrease of average rate of the movement of the VirE2 compared with control group", "setting": "[1]; 100 μM ML-7 infiltrated 4 h before imaging, control 1% DMSO, FIG. 4b", "value": 95, "unit": "%"}, {"measurement": "transformation efficiency (tumorigenesis)", "setting": "[4]", "value": "significantly reduced"}]}, {"smiles": "C[C@H]1CCC/C=C/[C@@H]2C[C@H](O)C[C@H]2[C@H](O)/C=C/C(=O)O1", "note": "[brefeldin A]", "values": [{"measurement": "effect on VirE2 trafficking", "setting": "[1]; [8]", "value": "severely affected"}, {"measurement": "effect on ER structure", "setting": "[5]", "value": "disrupted"}]}, {"smiles": "COc1cc2c(c(OC)c1OC)-c1ccc(OC)c(=O)cc1[C@@H](NC(C)=O)CC2", "note": "[colchicine]", "values": [{"measurement": "average velocity of VirE2 movement, relative to the control", "setting": "[1]; colchicine 500 μM, cytochalasin D 20 μM, brefeldin A 100 μg/mL, 6 h before observation, over 20 events per treatment, FIG. 1c", "value": "over 60%"}, {"measurement": "effect on VirE2 trafficking", "setting": "[1]; [8]", "value": "minor effect; also recorded: did not affect the VirE2 trafficking significantly"}, {"measurement": "effect on microtubule structure", "setting": "[6]", "value": "disrupted"}]}, {"smiles": "C=C1[C@@H](C)[C@H]2[C@H](Cc3ccccc3)NC(=O)[C@]23[C@H](OC(C)=O)/C=C/[C@@](C)(O)C(=O)[C@@H](C)C/C=C/[C@H]3[C@@H]1O", "note": "[cytochalasin D]", "values": [{"measurement": "effect on VirE2 trafficking", "setting": "[1]; [8]", "value": "severely affected"}, {"measurement": "effect on VirE2 trafficking", "setting": "[1]; colchicine 500 μM, cytochalasin D 20 μM, brefeldin A 100 μg/mL, listed as CytoD", "value": "stop the VirE2 movement"}, {"measurement": "effect on actin structure", "setting": "[7]", "value": "disrupted"}]}]}
